PMC5666424, “Marine-Derived 2-Aminoimidazolone Alkaloids. Leucettamine B-Related Polyandrocarpamines Inhibit Mammalian and Protozoan DYRK & CLK Kinases” (Marine Drugs, 2017)

What was measured:
Assay in all cases: KinomeScan
Assay type in all cases: binding
Details in all cases: 1 μM
[1] = target: T1, ABL1(E255K)-phosphorylated (Homo sapiens, UniProt P00519, E255K)
T1 construct: purchased DiscoverX (KINOMEscan)

[2] = target: T2, ABL1(F317L)-nonphosphorylated (Homo sapiens, UniProt P00519, F317L)
T2 construct: purchased DiscoverX (KINOMEscan)
T2 sequence (P00519 229-512 F317L limits assumed): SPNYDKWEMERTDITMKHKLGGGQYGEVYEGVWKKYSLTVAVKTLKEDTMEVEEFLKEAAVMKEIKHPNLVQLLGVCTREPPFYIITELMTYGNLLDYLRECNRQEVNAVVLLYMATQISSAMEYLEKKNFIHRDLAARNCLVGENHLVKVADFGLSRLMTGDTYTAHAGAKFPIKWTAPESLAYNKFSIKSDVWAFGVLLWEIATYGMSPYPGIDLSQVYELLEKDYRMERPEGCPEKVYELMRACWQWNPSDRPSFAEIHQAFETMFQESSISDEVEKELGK

[3] = target: T3, ABL1(F317L)-phosphorylated (Homo sapiens, UniProt P00519, F317L)
T3 construct: purchased DiscoverX (KINOMEscan)
T3 sequence (P00519 whole entry F317L): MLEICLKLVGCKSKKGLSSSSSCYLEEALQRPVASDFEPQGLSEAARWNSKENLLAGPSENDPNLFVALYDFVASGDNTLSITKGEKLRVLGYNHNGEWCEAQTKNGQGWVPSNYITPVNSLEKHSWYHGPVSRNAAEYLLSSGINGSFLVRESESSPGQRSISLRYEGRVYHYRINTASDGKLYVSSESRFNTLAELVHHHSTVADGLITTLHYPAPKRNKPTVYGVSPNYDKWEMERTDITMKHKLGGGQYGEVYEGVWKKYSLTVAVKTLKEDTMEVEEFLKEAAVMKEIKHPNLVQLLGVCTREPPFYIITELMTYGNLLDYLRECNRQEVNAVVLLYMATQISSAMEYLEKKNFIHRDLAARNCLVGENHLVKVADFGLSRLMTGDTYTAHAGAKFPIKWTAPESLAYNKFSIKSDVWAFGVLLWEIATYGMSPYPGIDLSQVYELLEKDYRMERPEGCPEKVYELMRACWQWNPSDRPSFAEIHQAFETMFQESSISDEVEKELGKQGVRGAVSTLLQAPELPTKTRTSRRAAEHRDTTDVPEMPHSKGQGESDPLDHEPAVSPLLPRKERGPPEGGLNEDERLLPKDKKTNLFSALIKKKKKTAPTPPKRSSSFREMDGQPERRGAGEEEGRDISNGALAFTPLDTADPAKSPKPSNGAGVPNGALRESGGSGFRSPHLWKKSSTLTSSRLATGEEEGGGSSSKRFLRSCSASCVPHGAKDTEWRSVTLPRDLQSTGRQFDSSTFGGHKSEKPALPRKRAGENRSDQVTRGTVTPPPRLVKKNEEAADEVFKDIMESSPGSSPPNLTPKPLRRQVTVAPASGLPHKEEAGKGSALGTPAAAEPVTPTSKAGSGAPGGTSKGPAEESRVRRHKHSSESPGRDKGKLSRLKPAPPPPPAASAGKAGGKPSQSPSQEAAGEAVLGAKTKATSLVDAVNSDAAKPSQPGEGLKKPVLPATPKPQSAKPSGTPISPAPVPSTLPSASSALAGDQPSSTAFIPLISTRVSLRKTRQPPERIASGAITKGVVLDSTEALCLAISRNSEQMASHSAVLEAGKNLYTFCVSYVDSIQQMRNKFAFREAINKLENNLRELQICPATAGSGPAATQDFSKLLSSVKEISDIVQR

ABL1-nonphosphorylated = target: T4, ABL1-nonphosphorylated (Homo sapiens, UniProt P00519)
T4 construct: purchased DiscoverX (KINOMEscan)
T4 sequence (P00519 whole entry): as the sequence (P00519 whole entry F317L) above, with L317F counted along it

ACVR1B = target: T5, ACVR1B (Homo sapiens, UniProt P36896)
T5 construct: purchased DiscoverX (KINOMEscan)

ACVRL1 = target: T6, ACVRL1 (Homo sapiens, UniProt P37023)
T6 construct: purchased DiscoverX (KINOMEscan)

AKT1 = target: T7, AKT1 (Homo sapiens, UniProt P31749)
T7 construct: purchased DiscoverX (KINOMEscan)

AKT2 = target: T8, AKT2 (Homo sapiens, UniProt P31751)
T8 construct: purchased DiscoverX (KINOMEscan)

BLK = target: T9, BLK (Homo sapiens, UniProt P51451)
T9 construct: purchased DiscoverX (KINOMEscan)

BMPR2 = target: T10, BMPR2 (Homo sapiens, UniProt Q13873)
T10 construct: purchased DiscoverX (KINOMEscan)

BRSK1 = target: T11, BRSK1 (Homo sapiens, UniProt Q8TDC3)
T11 construct: purchased DiscoverX (KINOMEscan)
T11 sequence (Q8TDC3 whole entry): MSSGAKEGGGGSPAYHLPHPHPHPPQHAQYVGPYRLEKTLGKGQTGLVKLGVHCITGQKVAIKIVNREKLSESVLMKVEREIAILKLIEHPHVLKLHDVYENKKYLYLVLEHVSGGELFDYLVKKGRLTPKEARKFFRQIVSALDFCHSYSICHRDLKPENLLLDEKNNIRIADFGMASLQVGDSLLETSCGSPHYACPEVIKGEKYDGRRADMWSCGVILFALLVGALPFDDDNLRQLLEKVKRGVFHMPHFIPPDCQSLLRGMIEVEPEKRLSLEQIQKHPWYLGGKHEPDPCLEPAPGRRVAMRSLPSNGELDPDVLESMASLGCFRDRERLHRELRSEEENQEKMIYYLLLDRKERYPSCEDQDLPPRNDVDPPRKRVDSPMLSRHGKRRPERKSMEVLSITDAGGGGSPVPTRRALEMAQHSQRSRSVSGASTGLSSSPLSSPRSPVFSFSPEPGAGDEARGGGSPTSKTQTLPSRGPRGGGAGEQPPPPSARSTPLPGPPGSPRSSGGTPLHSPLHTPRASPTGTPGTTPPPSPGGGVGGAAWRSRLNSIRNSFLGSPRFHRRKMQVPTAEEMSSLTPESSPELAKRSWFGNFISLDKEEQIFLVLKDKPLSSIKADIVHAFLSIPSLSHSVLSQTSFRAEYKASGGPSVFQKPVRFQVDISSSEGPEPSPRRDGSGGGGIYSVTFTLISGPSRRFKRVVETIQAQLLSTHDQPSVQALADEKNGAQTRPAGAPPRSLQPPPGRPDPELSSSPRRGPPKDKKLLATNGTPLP

CDC2L2 = target: T12, CDC2L2 (Homo sapiens, UniProt Q9UQ88)
T12 construct: purchased DiscoverX (KINOMEscan)

CSNK1D = target: T13, CSNK1D (Homo sapiens, UniProt P48730)
T13 construct: purchased DiscoverX (KINOMEscan)
T13 sequence (P48730 whole entry): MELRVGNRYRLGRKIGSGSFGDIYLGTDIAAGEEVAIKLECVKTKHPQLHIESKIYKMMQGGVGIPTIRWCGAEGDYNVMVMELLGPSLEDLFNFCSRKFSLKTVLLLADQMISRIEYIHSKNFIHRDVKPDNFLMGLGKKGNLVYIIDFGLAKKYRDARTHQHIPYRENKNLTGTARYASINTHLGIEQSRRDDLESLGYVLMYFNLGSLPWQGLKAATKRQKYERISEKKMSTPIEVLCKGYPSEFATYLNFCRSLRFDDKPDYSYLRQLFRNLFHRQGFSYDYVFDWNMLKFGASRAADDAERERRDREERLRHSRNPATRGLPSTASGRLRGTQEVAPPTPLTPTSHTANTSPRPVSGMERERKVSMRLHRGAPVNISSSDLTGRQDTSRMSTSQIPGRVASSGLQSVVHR

DAPK2 = target: T14, DAPK2 (Homo sapiens, UniProt Q9UIK4)
T14 construct: purchased DiscoverX (KINOMEscan)

DLK = target: T15, DLK (Homo sapiens, UniProt Q12852)
T15 construct: purchased DiscoverX (KINOMEscan)

DRAK2 = target: T16, DRAK2 (Homo sapiens, UniProt O94768)
T16 construct: purchased DiscoverX (KINOMEscan)

EGFR(S752-I759del) = target: T17, EGFR(S752-I759del) (Homo sapiens, UniProt P00533, DEL752-759)
T17 construct: purchased DiscoverX (KINOMEscan)

EPHB4 = target: T18, EPHB4 (Homo sapiens, UniProt P54760)
T18 construct: purchased DiscoverX (KINOMEscan)

KIT = target: T19, KIT (Homo sapiens, UniProt P10721)
T19 construct: purchased DiscoverX (KINOMEscan)
T19 sequence (P10721 26-976): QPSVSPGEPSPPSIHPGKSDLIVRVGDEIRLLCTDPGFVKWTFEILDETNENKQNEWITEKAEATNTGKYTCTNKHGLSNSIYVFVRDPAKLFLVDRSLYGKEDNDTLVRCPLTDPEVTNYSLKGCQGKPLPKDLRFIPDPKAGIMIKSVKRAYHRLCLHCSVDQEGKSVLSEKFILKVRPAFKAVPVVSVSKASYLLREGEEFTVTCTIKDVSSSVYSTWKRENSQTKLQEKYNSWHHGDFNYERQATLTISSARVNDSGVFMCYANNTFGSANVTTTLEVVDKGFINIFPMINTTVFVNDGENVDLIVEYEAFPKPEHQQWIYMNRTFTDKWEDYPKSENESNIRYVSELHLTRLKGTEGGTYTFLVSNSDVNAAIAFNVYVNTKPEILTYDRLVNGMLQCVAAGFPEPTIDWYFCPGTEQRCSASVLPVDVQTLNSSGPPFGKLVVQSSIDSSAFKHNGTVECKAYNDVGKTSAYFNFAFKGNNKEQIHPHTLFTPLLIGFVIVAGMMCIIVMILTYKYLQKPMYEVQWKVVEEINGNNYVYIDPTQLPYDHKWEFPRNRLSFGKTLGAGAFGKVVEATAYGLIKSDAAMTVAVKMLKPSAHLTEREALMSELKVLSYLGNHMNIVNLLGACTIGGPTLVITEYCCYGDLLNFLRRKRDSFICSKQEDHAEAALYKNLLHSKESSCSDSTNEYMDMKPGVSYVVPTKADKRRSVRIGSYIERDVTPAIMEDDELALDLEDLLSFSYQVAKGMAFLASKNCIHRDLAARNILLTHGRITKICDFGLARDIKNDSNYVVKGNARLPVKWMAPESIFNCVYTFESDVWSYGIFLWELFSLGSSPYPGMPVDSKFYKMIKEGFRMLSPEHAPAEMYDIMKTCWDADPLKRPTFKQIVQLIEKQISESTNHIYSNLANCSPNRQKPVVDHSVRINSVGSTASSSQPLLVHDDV

KIT(V559D) = target: T20, KIT(V559D) (Homo sapiens, UniProt P10721, V559D)
T20 construct: purchased DiscoverX (KINOMEscan)
T20 sequence (P10721 26-976 V559D): as the sequence (P10721 26-976) above, with V534D counted along it

LIMK1 = target: T21, LIMK1 (Homo sapiens, UniProt P53667)
T21 construct: purchased DiscoverX (KINOMEscan)
T21 sequence (P53667 whole entry): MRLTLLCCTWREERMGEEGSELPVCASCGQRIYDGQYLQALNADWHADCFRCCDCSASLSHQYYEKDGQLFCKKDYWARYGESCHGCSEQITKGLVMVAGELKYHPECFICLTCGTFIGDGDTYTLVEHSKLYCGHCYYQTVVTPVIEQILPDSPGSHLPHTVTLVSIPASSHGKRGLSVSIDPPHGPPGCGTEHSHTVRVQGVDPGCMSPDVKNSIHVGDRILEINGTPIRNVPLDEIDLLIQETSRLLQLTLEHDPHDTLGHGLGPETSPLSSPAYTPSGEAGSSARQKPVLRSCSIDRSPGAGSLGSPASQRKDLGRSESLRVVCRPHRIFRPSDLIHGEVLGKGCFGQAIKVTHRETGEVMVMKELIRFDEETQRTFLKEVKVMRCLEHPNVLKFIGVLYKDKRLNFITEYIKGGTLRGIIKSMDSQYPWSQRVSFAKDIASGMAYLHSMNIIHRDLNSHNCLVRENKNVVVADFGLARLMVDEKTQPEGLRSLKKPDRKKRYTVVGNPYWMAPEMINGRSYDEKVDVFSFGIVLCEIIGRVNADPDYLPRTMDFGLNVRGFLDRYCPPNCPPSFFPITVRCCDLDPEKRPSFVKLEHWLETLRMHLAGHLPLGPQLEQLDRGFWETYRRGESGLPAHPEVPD

MARK1 = target: T22, MARK1 (Homo sapiens, UniProt Q9P0L2)
T22 construct: purchased DiscoverX (KINOMEscan)

MEK2 = target: T23, MEK2 (Homo sapiens, UniProt P36507)
T23 construct: purchased DiscoverX (KINOMEscan)

MEK3 = target: T24, MEK3 (Homo sapiens, UniProt P46734)
T24 construct: purchased DiscoverX (KINOMEscan)

MYLK2 = target: T25, MYLK2 (Homo sapiens, UniProt Q9H1R3)
T25 construct: purchased DiscoverX (KINOMEscan)

MYO3B = target: T26, MYO3B (Homo sapiens, UniProt Q8WXR4)
T26 construct: purchased DiscoverX (KINOMEscan)

NDR1 = target: T27, NDR1 (Homo sapiens, UniProt Q15208)
T27 construct: purchased DiscoverX (KINOMEscan)

NEK1 = target: T28, NEK1 (Homo sapiens, UniProt Q96PY6)
T28 construct: purchased DiscoverX (KINOMEscan)

NEK7 = target: T29, NEK7 (Homo sapiens, UniProt Q8TDX7)
T29 construct: purchased DiscoverX (KINOMEscan)

SRC = target: T30, SRC (Homo sapiens, UniProt P12931)
T30 construct: purchased DiscoverX (KINOMEscan)
T30 sequence (P12931 whole entry): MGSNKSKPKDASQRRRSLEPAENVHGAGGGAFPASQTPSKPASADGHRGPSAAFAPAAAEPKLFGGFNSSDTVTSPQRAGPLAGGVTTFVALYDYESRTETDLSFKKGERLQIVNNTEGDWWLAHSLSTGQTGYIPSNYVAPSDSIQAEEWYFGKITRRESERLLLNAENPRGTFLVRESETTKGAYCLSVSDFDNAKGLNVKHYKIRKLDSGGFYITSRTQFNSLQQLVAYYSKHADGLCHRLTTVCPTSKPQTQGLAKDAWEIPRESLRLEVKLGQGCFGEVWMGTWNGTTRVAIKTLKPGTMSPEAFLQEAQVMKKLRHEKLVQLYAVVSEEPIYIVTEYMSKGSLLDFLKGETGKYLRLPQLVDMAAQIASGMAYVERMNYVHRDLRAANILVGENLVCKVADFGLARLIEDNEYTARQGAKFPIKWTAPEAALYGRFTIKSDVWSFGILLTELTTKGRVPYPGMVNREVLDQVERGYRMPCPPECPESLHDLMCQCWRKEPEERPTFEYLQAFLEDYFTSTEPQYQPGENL

STK16 = target: T31, STK16 (Homo sapiens, UniProt O75716)
T31 construct: purchased DiscoverX (KINOMEscan)

TLK1 = target: T32, TLK1 (Homo sapiens, UniProt Q9UKI8)
T32 construct: purchased DiscoverX (KINOMEscan)

TRKC = target: T33, TRKC (Homo sapiens, UniProt Q16288)
T33 construct: purchased DiscoverX (KINOMEscan)

ULK3 = target: T34, ULK3 (Homo sapiens, UniProt Q6PHR2)
T34 construct: purchased DiscoverX (KINOMEscan)

WEE1 = target: T35, WEE1 (Homo sapiens, UniProt P30291)
T35 construct: purchased DiscoverX (KINOMEscan)

WEE2 = target: T36, WEE2 (Homo sapiens, UniProt P0C1S8)
T36 construct: purchased DiscoverX (KINOMEscan)

YSK1 = target: T37, YSK1 (Homo sapiens, UniProt O00506)
T37 construct: purchased DiscoverX (KINOMEscan)

T1 sequence (P00519 whole entry E255K): as the sequence (P00519 whole entry F317L) above, with E255K, L317F counted along it

COc1cc(/C=C2\N=C(N)NC2=O)ccc1O [Polyandrocarpamine A]
Score [1]: 100 | Score [2]: 100 | Score [3]: 98 | Score (ABL1-nonphosphorylated): 90 | Score (ACVR1B): 81 | Score (ACVRL1): 100 | Score (AKT1): 100 | Score (AKT2): 100 | Score (BLK): 100 | Score (BMPR2): 95 | Score (BRSK1): 100 | Score (CDC2L2): 100 | Score (CSNK1D): 70 | Score (DAPK2): 58 | Score (DLK): 100 | Score (DRAK2): 51 | Score (EGFR(S752-I759del)): 100 | Score (EPHB4): 100 | Score (KIT): 87 | Score (KIT(V559D)): 91 | Score (LIMK1): 100 | Score (MARK1): 100 | Score (MEK2): 100 | Score (MEK3): 98 | Score (MYLK2): 95 | Score (MYO3B): 88 | Score (NDR1): 100 | Score (NEK1): 100 | Score (NEK7): 100 | Score (SRC): 100 | Score (STK16): 100 | Score (TLK1): 94 | Score (TRKC): 82 | Score (ULK3): 100 | Score (WEE1): 100 | Score (WEE2): 100 | Score (YSK1): 100
